Source: patent US20240226234A1, “WNT5A PEPTIDES FOR THE TREATMENT OF ACUTE M[…]” (W[…], priority 2021, published 2024)
No end group written: not given here. *: point of attachment. For = O=C*

How the values were obtained:
[1] = test system: KG1a cells; experiment: ROS production by flow cytometry, KG1a cells; assay type: cell-based, human; conditions: 72 h; for ROS production (MFI): 2D culture on HS5 stromal cells; for ROS production (mean fluorescence intensity): monoculture
Protocol: A panel of human myeloid leukemia cell lines (HL60, K562, KG1a, THP1 and U937) and HS-5 mesenchymal stromal cells lineage were cultured in Roswell Park Memorial Institute medium-1640 (RPMI; Sigma) containing 10% Fetal Bovine Serum (Gibco), glutamine (2 mM; Sigma), penicillin (100 μg/mL; Sigma), streptomycin (100 μg/mL; Sigma), and amphotericin B (0.25 μg/mL; Gibco). The cells were maintained in a humidified atmosphere at 37° C. and 5% CO2 and the experiments were performed when they reached exponential growth. For the assays, cells were seeded on a 24-well plate and treated or not with Foxy-5 for 72 hours.
Cells treated with Foxy or with vehicle were collected and intracellular ROS generation was measured by flow cytometry following staining with DCFDA ([…]; Sigma). Acquisition of cells was performed on a FACScalibur flow cytometer (BD) and analysis was carried out using the FlowJo software.
Leukemia cell lines were treated for 72 h with Foxy-5, at doses of 50 and 100 μM, or vehicle, stained with DCFHA dye, and analyzed by flow cytometry.

[2] = test system: PI3K and MAPK pathways; experiment: Western blot of PI3K and MAPK pathway proteins, U937 cells; assay type: cell-based, human; conditions: U937, Foxy-5 50 μM or 100 μM, 72 h
Protocol: Equal amounts of protein were resolved by sodium dodecyl sulphate-polyacrylamide gel electrophoresis and transferred onto nitrocellulose membranes (Millipore). Detection was carried out with the chemiluminescent substrate using an ECL Plus (GE-Healthcare). Monoclonal antibodies against P70S6K (sc-8418) and polyclonal antibodies against Actin (sc-1616), AKT1/2/3 (sc-8312), BAX (sc-493), BCL-XL (sc-8392), GAPDH (sc-32,233), p-AKT1/2/3 (sc-33,437) and p-P70S6K (sc-7984) were purchased from Santa Cruz Biotechnology. ERK1/2 ([pT185/Y187]; 44-680G) and ERK1/2 (44-654G) from Invitrogen. Quantitative blots were carried out using the UN-SCAN-IT densitometer software.
Based on the above results, the activity of proteins of PI3K and MAPK pathways were then investigated in a western blot. Briefly, U937 and K562 cells were seeded and treated with Foxy-5 (50 μM or 100 μM) or vehicle for 72 hours. Then, equal amounts of protein were used for total extracts followed by electrophoresis on 12% SDS polyacrylamide gels under reducing conditions, transferred to nitrocellulose membranes, blocked with 10% skimmed milk in TBS-0.1% Tween for 1 hour, stained with appropriate primary and secondary antibodies. The membranes were visualized with chemiluminescence using an ECL Plus (GE-Healthcare). Quantitative analyses of the optical intensities of the protein bands were determined with Un-Scan-It Gel 6.1 (Silk Scientific Inc.).

[3] = test system: U937 xenografts; experiment: U937 xenograft mouse model, tumour growth; assay type: in vivo; conditions: NOD/SCID mice, Foxy-5 40 μg/μL i.p. once every 2 days
From the text: The control group received equal amounts of vehicle solution.

Foxy-5: Formylated hexapeptide fragment of WNT5A: MDGCEL (SEQ. ID. NO. 3) with methionine in position 1 as N-formyl methionine; WNT5A-mimicking compound (For-MDGCEL; listed as Homo sapiens)
ROS production (MFI) ([1]; Foxy-5 50 μM): 75.03 (range 75.03-77.70) MFI
ROS production (MFI) ([1]; Foxy-5 100 μM): 69.00 (range 68.00-72.00) MFI
ROS production (mean fluorescence intensity) ([1]; Foxy-5 50 μM): 36.30 (range 35.80-36.80) MFI
ROS production (mean fluorescence intensity) ([1]; Foxy-5 100 μM): 29.72 (range 28.10-31.33) MFI
phosphorylation level of AKT compared to vehicle-treated cells [2]: lower phosphorylation levels
phosphorylation level of ERK compared to vehicle-treated cells [2]: lower phosphorylation levels
protein level of cyclin D1 compared to vehicle-treated cells [2]: reduced protein level
tumour volume (median) ([3]; 9 days): 469 mm^3
inhibition of tumour growth ([3]; vs control group at day 9): 55.46%
inhibition of tumour weight ([3]; vs control group at day 9): 45.51%
